Source: patent publication US8192962B2, “Processes for detecting toxic substances” (Daikin Industries, Ltd., priority 2001, dated 2012)

Tested on: Mitochondria-located protein genes
Experiment: DNA chip mRNA expression in yeast, mitochondria-located protein genes (Table 2)
Format: cell-based, Saccharomyces cerevisiae S288C
Settings: cells incubated two hours with the chemical substance
How it was run: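 Values are treated/untreated fluorescence ratios from a whole-genome yeast DNA chip hybridized over 12 hours at 65° C with Cy3- or Cy5-labelled cDNA from poly(A) mRNA. Log-phase S288C yeast in YPD at 25° C had received a single toxic chemical for two hours, dosed to slow growth without killing.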

Na2As [(1)]
The level of expressed mRNA in the presence of chemical substance/The level of expressed mRNA in the absence of chemical substance (yeast gene YJR121W): 0.9 | The level of expressed mRNA in the presence of chemical substance/The level of expressed mRNA in the absence of chemical substance (yeast gene YKL003C): 1.1 | The level of expressed mRNA in the presence of chemical substance/The level of expressed mRNA in the absence of chemical substance (yeast gene YKL016C): 1.5 | The level of expressed mRNA in the presence of chemical substance/The level of expressed mRNA in the absence of chemical substance (yeast gene YKL141W): 1.6 | The level of expressed mRNA in the presence of chemical substance/The level of expressed mRNA in the absence of chemical substance (yeast gene YKL142W): 1.8 | The level of expressed mRNA in the presence of chemical substance/The level of expressed mRNA in the absence of chemical substance (yeast gene YKL148C): 0.9 | The level of expressed mRNA in the presence of chemical substance/The level of expressed mRNA in the absence of chemical substance (yeast gene YKL170W): 1.0 | The level of expressed mRNA in the presence of chemical substance/The level of expressed mRNA in the absence of chemical substance (yeast gene YKL194C): 0.9 | The level of expressed mRNA in the presence of chemical substance/The level of expressed mRNA in the absence of chemical substance (yeast gene YKR066C): 0.9 | The level of expressed mRNA in the presence of chemical substance/The level of expressed mRNA in the absence of chemical substance (yeast gene YLL041C): 1.1 | The level of expressed mRNA in the presence of chemical substance/The level of expressed mRNA in the absence of chemical substance (yeast gene YLR038C): 2.3 | The level of expressed mRNA in the presence of chemical substance/The level of expressed mRNA in the absence of chemical substance (yeast gene YLR259C): 0.7 | The level of expressed mRNA in the presence of chemical substance/The level of expressed mRNA in the absence of chemical substance (yeast gene YLR295C): 1.4 | The level of expressed mRNA in the presence of chemical substance/The level of expressed mRNA in the absence of chemical substance (yeast gene YLR304C): 0.7 | The level of expressed mRNA in the presence of chemical substance/The level of expressed mRNA in the absence of chemical substance (yeast gene YLR348C): 1.1 | The level of expressed mRNA in the presence of chemical substance/The level of expressed mRNA in the absence of chemical substance (yeast gene YLR395C): 1.8 | The level of expressed mRNA in the presence of chemical substance/The level of expressed mRNA in the absence of chemical substance (yeast gene YML054C): 1.5 | The level of expressed mRNA in the presence of chemical substance/The level of expressed mRNA in the absence of chemical substance (yeast gene YML120C): 1.1 | The level of expressed mRNA in the presence of chemical substance/The level of expressed mRNA in the absence of chemical substance (yeast gene YML129C): 1.1 | The level of expressed mRNA in the presence of chemical substance/The level of expressed mRNA in the absence of chemical substance (yeast gene YMR023C): 1.4 | The level of expressed mRNA in the presence of chemical substance/The level of expressed mRNA in the absence of chemical substance (yeast gene YMR035W): 1.2 | The level of expressed mRNA in the presence of chemical substance/The level of expressed mRNA in the absence of chemical substance (yeast gene YMR083W): 1.4 | The level of expressed mRNA in the presence of chemical substance/The level of expressed mRNA in the absence of chemical substance (yeast gene YMR089C): 0.8 | The level of expressed mRNA in the presence of chemical substance/The level of expressed mRNA in the absence of chemical substance (yeast gene YMR152W): 0.9 | The level of expressed mRNA in the presence of chemical substance/The level of expressed mRNA in the absence of chemical substance (yeast gene YMR203W): 0.8 | The level of expressed mRNA in the presence of chemical substance/The level of expressed mRNA in the absence of chemical substance (yeast gene YMR267W): 0.8 | The level of expressed mRNA in the presence of chemical substance/The level of expressed mRNA in the absence of chemical substance (yeast gene YNL055C): 1.1 | The level of expressed mRNA in the presence of chemical substance/The level of expressed mRNA in the absence of chemical substance (yeast gene YNL071W): 0.9 | The level of expressed mRNA in the presence of chemical substance/The level of expressed mRNA in the absence of chemical substance (yeast gene YNL073W): 0.8 | The level of expressed mRNA in the presence of chemical substance/The level of expressed mRNA in the absence of chemical substance (yeast gene YNL104C): 1.1 | The level of expressed mRNA in the presence of chemical substance/The level of expressed mRNA in the absence of chemical substance (yeast gene YNL256W): 0.7 | The level of expressed mRNA in the presence of chemical substance/The level of expressed mRNA in the absence of chemical substance (yeast gene YOL096C): 1.1 | The level of expressed mRNA in the presence of chemical substance/The level of expressed mRNA in the absence of chemical substance (yeast gene YOR020C): 1.4 | The level of expressed mRNA in the presence of chemical substance/The level of expressed mRNA in the absence of chemical substance (yeast gene YOR037W): 1.0 | The level of expressed mRNA in the presence of chemical substance/The level of expressed mRNA in the absence of chemical substance (yeast gene YOR100C): 1.3 | The level of expressed mRNA in the presence of chemical substance/The level of expressed mRNA in the absence of chemical substance (yeast gene YOR130C): 0.8 | The level of expressed mRNA in the presence of chemical substance/The level of expressed mRNA in the absence of chemical substance (yeast gene YOR142W): 1.0 | The level of expressed mRNA in the presence of chemical substance/The level of expressed mRNA in the absence of chemical substance (yeast gene YOR150W): 1.7 | The level of expressed mRNA in the presence of chemical substance/The level of expressed mRNA in the absence of chemical substance (yeast gene YOR176W): 0.7 | The level of expressed mRNA in the presence of chemical substance/The level of expressed mRNA in the absence of chemical substance (yeast gene YOR187W): 1.0 | The level of expressed mRNA in the presence of chemical substance/The level of expressed mRNA in the absence of chemical substance (yeast gene YOR316C): 0.7 | The level of expressed mRNA in the presence of chemical substance/The level of expressed mRNA in the absence of chemical substance (yeast gene YPL040C): 1.1 | The level of expressed mRNA in the presence of chemical substance/The level of expressed mRNA in the absence of chemical substance (yeast gene YPL134C): 1.5 | The level of expressed mRNA in the presence of chemical substance/The level of expressed mRNA in the absence of chemical substance (yeast gene YPL135W): 0.9 | The level of expressed mRNA in the presence of chemical substance/The level of expressed mRNA in the absence of chemical substance (yeast gene YPL215W): 1.1 | The level of expressed mRNA in the presence of chemical substance/The level of expressed mRNA in the absence of chemical substance (yeast gene YPL262W): 1.0 | The level of expressed mRNA in the presence of chemical substance/The level of expressed mRNA in the absence of chemical substance (yeast gene YPR024W): 0.7 | The level of expressed mRNA in the presence of chemical substance/The level of expressed mRNA in the absence of chemical substance (yeast gene YPR037C): 1.2 | The level of expressed mRNA in the presence of chemical substance/The level of expressed mRNA in the absence of chemical substance (yeast gene YPR047W): 1.0 | The level of expressed mRNA in the presence of chemical substance/The level of expressed mRNA in the absence of chemical substance (yeast gene YPR134W): 1.1
